The text below walks through data of US6413960B1, “Substituted pyrazolyl benzenesulfonamides for the treatment of asthma” (G.D. Searle & Co., priority 1993, dated 2002).

Where two headings read alike, the source gives them in different places. Some results are limits rather than exact numbers.

The subject of data set [1] is Male Sprague-Dawley rats (carrageenan hyperalgesic foot withdrawal). To be noted: rat.
Method: Rat Carrageenan-induced Analgesia Test
Male Sprague-Dawley rats were treated as previously described for the carrageenan Foot Pad Edema test. Three hours after the injection of the carrageenan, the rats were placed in a special plexiglass container with a transparent floor having a high intensity lamp as a radiant heat source, positionable under the floor. After an initial twenty minute period, thermal stimulation was begun on either the injected foot or on the contralateral uninjected foot. A photoelectric cell turned off the lamp and timer when light was interrupted by paw withdrawal. The time until the rat withdraws its foot was then measured. The withdrawal latency in seconds was determined for the control and drug-treated groups, and percent inhibition of the hyperalgesic foot withdrawal determined.
Data set [2] has as its system Male Sprague-Dawley rats (carrageenan foot edema). To be noted: for RAT PAW EDEMA % Inhibition (* Assay performed at 30 mg/kg body weight): 30 mg/kg body weight (values marked *).
Method: Rat Carrageenan Foot Pad Edema Test
Male Sprague-Dawley rats were selected in each group so that the average body weight was as close as possible. Rats were fasted with free access to water for over sixteen hours prior to the test. […] One hour later a subplantar injection of 0.1 mL of 1% solution of carrageenan/sterile 0.9% saline was administered and the volume of the injected foot was measured with a displacement plethysmometer connected to a pressure transducer with a digital indicator. Three hours after the injection of the carrageenan, the volume of the foot was again measured.
The target of another data set is T1, Human COX I (Homo sapiens, UniProt P23219).
T1 construct: A 2.0 kb fragment containing the coding region of either human or murine COX-I or human or murine COX-II; made in house; host or cells: SF9 insect cells (baculovirus, transfer vector pVL1393)
T1 sequence (P23219 24-599): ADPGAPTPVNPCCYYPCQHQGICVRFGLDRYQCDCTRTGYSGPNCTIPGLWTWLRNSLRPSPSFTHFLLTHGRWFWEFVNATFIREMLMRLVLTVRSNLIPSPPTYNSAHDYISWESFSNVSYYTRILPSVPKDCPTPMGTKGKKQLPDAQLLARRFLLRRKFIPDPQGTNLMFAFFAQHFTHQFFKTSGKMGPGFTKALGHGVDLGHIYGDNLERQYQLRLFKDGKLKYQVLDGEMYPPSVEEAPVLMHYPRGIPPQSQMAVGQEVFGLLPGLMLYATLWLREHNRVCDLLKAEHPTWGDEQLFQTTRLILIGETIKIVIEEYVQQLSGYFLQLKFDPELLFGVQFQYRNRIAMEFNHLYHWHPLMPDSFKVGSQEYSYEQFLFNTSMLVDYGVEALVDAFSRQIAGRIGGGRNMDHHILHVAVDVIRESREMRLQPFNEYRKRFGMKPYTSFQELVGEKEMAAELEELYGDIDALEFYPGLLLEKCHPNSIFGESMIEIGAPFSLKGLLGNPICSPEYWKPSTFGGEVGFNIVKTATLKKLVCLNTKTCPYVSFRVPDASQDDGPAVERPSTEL
The data set is described as follows: Assay for COX I activity in vitro (PGE2 ELISA, recombinant enzyme). Format: biochemical.

Another data set concerns the target T2, Human COX II (Homo sapiens, UniProt P35354).
T2 construct: A 2.0 kb fragment containing the coding region of either human or murine COX-I or human or murine COX-II; made in house; host or cells: SF9 insect cells (baculovirus, transfer vector pVL1393)
T2 sequence (P35354 18-604): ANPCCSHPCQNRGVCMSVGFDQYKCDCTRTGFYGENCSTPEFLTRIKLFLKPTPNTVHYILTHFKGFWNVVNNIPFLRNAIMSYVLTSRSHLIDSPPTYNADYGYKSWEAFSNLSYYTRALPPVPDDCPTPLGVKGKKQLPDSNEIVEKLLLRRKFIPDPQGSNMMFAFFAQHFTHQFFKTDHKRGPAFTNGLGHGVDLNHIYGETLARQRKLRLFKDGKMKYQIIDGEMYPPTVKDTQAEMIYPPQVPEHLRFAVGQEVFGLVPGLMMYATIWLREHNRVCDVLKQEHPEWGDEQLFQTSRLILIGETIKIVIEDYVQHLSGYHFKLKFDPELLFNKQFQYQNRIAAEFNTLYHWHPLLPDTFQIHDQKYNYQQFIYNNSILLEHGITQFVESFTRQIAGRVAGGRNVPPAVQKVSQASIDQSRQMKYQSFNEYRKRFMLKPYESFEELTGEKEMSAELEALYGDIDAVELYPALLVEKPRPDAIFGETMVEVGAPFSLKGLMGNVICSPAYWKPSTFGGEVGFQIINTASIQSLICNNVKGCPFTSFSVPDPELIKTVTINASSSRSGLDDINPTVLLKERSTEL
Kind of data set: Assay for COX II activity in vitro (PGE2 ELISA, recombinant enzyme). Format: biochemical. As to conditions: read-out: Human COX II ID50. (In general: In an ELISA, binding on a coated surface is turned into a signal by an enzyme label.)

Where [3] appears, read: oral, 30 mg/kg body weight, inhibition of hyperalgesic foot withdrawal.
Setting [4] is: oral, 10 mg/kg body weight, foot volume 3 h after carrageenan.
[5] abbreviates: oral, foot volume 3 h after carrageenan.

Method for Human COX II: The COX II inhibition activity of the compounds of this invention illustrated in the Examples was determined by the following methods.

In the case of `NS(=O)(=O)c1ccc(-n2nc(C(F)(F)F)cc2-c2ccc(Cl)cc2)cc1` [Example 1, 4-[5-(4-Chlorophenyl)-3-(trifluoromethyl)-1H-pyrazol-1-yl]benzenesulfonamide], in data set [1] (in vivo), the “ANALGESIA % Inhibition @ 30 mg/kg body weight” value was 94%. For the same compound, the “RAT PAW EDEMA % Inhibition @ 10 mg/kg body weight” value in data set [2] (in vivo) is recorded as 44%.

`C=CCc1cc(-c2cc(C(F)(F)F)nn2-c2ccc(S(N)(=O)=O)cc2)ccc1OC` [Example 6, 4-[5-(3-(3-Propenyl)-4-methoxyphenyl)-3-(trifluoromethyl)-1H-pyrazol-1-yl]benzenesulfonamide]: the IC50 on Human COX I was found to be 78.7 µM.

On to `NS(=O)(=O)c1ccc(-n2nc(C(F)F)cc2-c2ccc(Cl)cc2)cc1` [Example 58, 4-[5-(4-Chlorophenyl)-3-(difluoromethyl)-1H-pyrazol-1-yl]benzenesulfonamide], for which the “ANALGESIA % Inhibition @ 30 mg/kg body weight” value in data set [1] (setting [3]) came out at 65%. Besides, the “RAT PAW EDEMA % Inhibition @ 10 mg/kg body weight” value in data set [2] (setting [4]) is reported as 36%.

As to `COc1ccc(-c2cc(C(F)F)nn2-c2ccc(S(N)(=O)=O)cc2)cc1F` [Example 59, 4-[5-(3-Fluoro-4-methoxyphenyl)-3-(difluoromethyl)-1H-pyrazol-1-yl]benzenesulfonamide], the “ANALGESIA % Inhibition @ 30 mg/kg body weight” value in data set [1] (in vivo) is 41%. Besides, the “RAT PAW EDEMA % Inhibition @ 10 mg/kg body weight” value in data set [2] (in vivo) turned out to be 25%.

Consider `COc1ccc(-c2cc(C(F)F)nn2-c2ccc(S(N)(=O)=O)cc2)cc1` [Example 60, 4-[3-Difluoromethyl-5-(4-methoxyphenyl)-1-H-pyrazol-1-yl]benzenesulfonamide], for which the “ANALGESIA % Inhibition @ 30 mg/kg body weight” value in data set [1] (setting [3]) is 39%. The “RAT PAW EDEMA % Inhibition @ 10 mg/kg body weight” value in data set [2] (setting [4]) is 49%.

As for `NS(=O)(=O)c1ccc(-n2nc(C(F)F)cc2-c2ccc3c(c2)OCO3)cc1` [Example 82, 4-[5-(1,3-Benzodioxol-5-yl)-3-(difluoromethyl)-1H-pyrazol-1-yl]benzenesulfonamide], the “RAT PAW EDEMA % Inhibition (* Assay performed at 30 mg/kg body weight)” value in data set [2] (setting [5]) is 22* %.

As for `COC(=O)c1cc(-c2cc(F)c(OC)c(F)c2)n(-c2ccc(S(N)(=O)=O)cc2)n1` [Example 84, Methyl 1-(4-aminosulfonylphenyl)-5-(3,5-difluoro-4-methoxyphenyl)-1-H-pyrazole-3-carboxylate], the IC50 at Human COX II is less than 0.1 µM; on Human COX I (read-out: Human COX I ID50), 65.5 µM.

Consider `NS(=O)(=O)c1ccc(-n2nc(C(=O)Nc3cccc(Cl)c3)cc2-c2ccc(F)cc2)cc1` [Example 98, N-(3-Chlorophenyl)-[1-(4-aminosulfonylphenyl)-5-(4-fluorophenyl)-1H-pyrazol-3-yl]carboxamide], for which the “RAT PAW EDEMA % Inhibition (* Assay performed at 30 mg/kg body weight)” value in data set [2] (setting [5]) is on record as 2* %.

As to `N#Cc1cc(-c2ccc(F)cc2)n(-c2ccc(S(N)(=O)=O)cc2)n1` [Example 117], in data set [2] (setting [4]), the “RAT PAW EDEMA % Inhibition @ 10 mg/kg body weight” value was 32%.

Regarding `NS(=O)(=O)c1ccc(-n2nc(C(F)(F)Cl)cc2-c2ccc(Cl)cc2)cc1` [Example 129, 4-[5-(4-Chlorophenyl)-3-(chloro-difluoromethyl)-1H-pyrazol-1-yl]benzenesulfonamide], the melting point fell in the range of 130 to 133 °C. In addition, the IC50 on Human COX II is less than 0.1 µM. Further, the IC50 on Human COX I (read-out: Human COX I ID50) was determined as 13.5 µM. Moreover, in data set [2] (setting [5]), the “RAT PAW EDEMA % Inhibition (* Assay performed at 30 mg/kg body weight)” value is 47* %.

`COc1ccc(-c2cc(C(Cl)Cl)nn2-c2ccc(S(N)(=O)=O)cc2)cc1F` [Example 130, 4-[3-(Dichloromethyl)-5-(3-fluoro-4-methoxyphenyl)-1H-pyrazol-1-yl]benzenesulfonamide] yielded a melting point of 190 to 193 °C. Besides, the IC50 at Human COX II amounted to 3.6 µM. The IC50 on Human COX I (read-out: Human COX I ID50) turned out to be 12.5 µM.

Take `Cc1c(-c2cc(C(F)(F)F)nn2-c2ccc(S(N)(=O)=O)cc2)ccc2c1OCO2` [Example 138, 4-[5-(4-methyl-1,3-benzodioxol-5-yl)-3-(trifluoromethyl)-1H-pyrazol-1-yl]benzenesulfonamide]: the values for the IC50 on Human COX II and at Human COX I (read-out: Human COX I ID50) were 0.6 µM and less than 0.1 µM, respectively.

In the case of `NS(=O)(=O)c1ccc(-n2nc(CO)cc2-c2ccc(Cl)cc2)cc1` [Example 171, 4-[5-(4-Chlorophenyl)-3-hydroxymethyl-1H-pyrazol-1-yl]benzenesulfonamide], in data set [1] (setting [3]), the “ANALGESIA % Inhibition @ 30 mg/kg body weight” value is 37%. In data set [2] (setting [4]), the “RAT PAW EDEMA % Inhibition @ 10 mg/kg body weight” value is 14%.

Consider `Cc1ccc2c(c1)CCc1c(C(F)(F)F)nn(-c3ccc(S(N)(=O)=O)cc3)c1-2` [Example 188, 4-[4,5-Dihydro-7-methyl-3-(trifluoromethyl)-1H-benz[g]indazol-1-yl]benzenesulfonamide], for which the melting point was 215 to 218 °C. Moreover, the IC50 on Human COX I (read-out: Human COX I ID50) was 19.8 µM.

In turn, `NS(=O)(=O)c1ccc(-n2nc(C(F)(F)F)c3c2-c2ccsc2CC3)cc1` [Example 196, 4-[4,5-Dihydro-3-(trifluoromethyl)-1-H-thieno[3,2-g]indazol-1-yl]benzenesulfonamide] registered a melting point of 288 to 290 °C. Besides, the IC50 at Human COX II came to 0.6 µM. Moreover, the IC50 on Human COX I (read-out: Human COX I ID50) was 4.1 µM.

Consider `NS(=O)(=O)c1ccc(-n2ncc(Cl)c2-c2ccc(Cl)cc2)cc1` [Example 197, 4-[5-(4-Chlorophenyl)-4-chloro-1H-pyrazol-1-yl]benzenesulfonamide], for which the melting point is 168 to 171 °C (dec.). For the same compound, in data set [2] (setting [5]), the “RAT PAW EDEMA % Inhibition (* Assay performed at 30 mg/kg body weight)” value is reported as 45* %.

With `NS(=O)(=O)c1ccc(-n2nc(C(F)(F)F)c(Cl)c2-c2ccc(Cl)cc2)cc1` [Example 199, 4-[5-(4-Chlorophenyl)-3-(trifluoromethyl)-4-chloro-1H-pyrazol-1-yl]benzenesulfonamide], in data set [2] (setting [4]), the “RAT PAW EDEMA % Inhibition @ 10 mg/kg body weight” value was 35%.

Compound `Cc1c(C(F)(F)F)nn(-c2ccc(S(N)(=O)=O)cc2)c1-c1ccccc1` [Example 201, 4-[4-Methyl-5-phenyl-3-(trifluoromethyl)-1H-pyrazol-1-yl]benzenesulfonamide] had a melting point of 145 to 146 °C. Also, the IC50 on Human COX II was less than 0.1 µM. The IC50 on Human COX I (read-out: Human COX I ID50) turned out to be 2.2 µM.

`CCc1c(C(F)(F)F)nn(-c2ccc(S(N)(=O)=O)cc2)c1-c1ccc(OC)c(C)c1` [Example 202, 4-[4-Ethyl-5-(3-methyl-4-methoxyphenyl)-3-(trifluoromethyl)-1H-pyrazol-1-yl]benzenesulfonamide]: the melting point lay within 135 to 136 °C. At Human COX II, the IC50 is less than 0.1 µM. Besides, the IC50 at Human COX I (read-out: Human COX I ID50) is 91 µM.

`NS(=O)(=O)c1ccc(-n2nc(C(F)(F)F)c(C3CC3)c2-c2ccccc2)cc1` [Example 203, 4-[4-Cyclopropyl-5-phenyl-3-(trifluoromethyl)-1H-pyrazol-1-yl]benzenesulfonamide] gave a melting point of 173 to 174 °C. The IC50 at Human COX II amounted to 27 µM.

As to `CC(C)Cc1nn(-c2ccc(S(N)(=O)=O)cc2)c(-c2ccccc2)c1Cl` [Example 205, 4-(4-Chloro-3-isobutyl-5-phenyl-1H-pyrazol-1-yl)benzenesulfonamide], the IC50 is less than 0.1 µM at Human COX II (recombinant human COX II, arachidonic acid 10 μM, PGE2 ELISA) and 2.1 µM on Human COX I (recombinant human COX I, arachidonic acid 10 μM, PGE2 ELISA, read-out: Human COX I ID50).

A word on the melting point: it is the temperature, or range, at which the solid turns liquid.
